This note sets out measurements from patent publication US12679838B2, “Aromatic compound and application thereof in antitumor drug” (Shanghai Zheye Biotechnology Co., Ltd., priority 2020, dated 2026).

The test system of series [1] is NCI-H358 tumor cells xenograft. In words: Pharmacodynamics test of xenograft tumor model of NCI-H358 in nude mice. The format is in vivo, Balb/c Nude mice. Particulars: 100 mg/kg. The protocol:
Animal species and number: Balb/c Nude; 6 animals per group.
Samples for testing: compound 3-2M, compound 3-16M, TM-1, TM-3, and AMG510 (obtained by purchasing).
Test groups: blank solvent control group; compound 3-2M (100 mg/kg, QD×15 days), compound 3-16M (100 mg/kg, QD×15 days), TM-1 (100 mg/kg, QD×15 days), TM-3 (100 mg/kg, QD×15 days); and AMG510 (100 mg/kg, QD×15 days).
Animal model establishment: NCI-H358 tumor cells at logarithmic phase were cultured and collected in vitro, and inoculated subcutaneously on the right side of the back of nude mice at a quantity of 5×10^6 cells/each, and the tumor-bearing nude mice were randomly grouped when the tumor volume grew to 150-300 mm^3. Subsequently, each group of animals was administered and the day of the first administration was defined as day 1 of the test.
(§1) Administration route and frequency: oral gavage; and once a day.
General state observation: observation time and frequency: once a day; observation index or content: including, but is not limited to local administration, appearance and signs, general behavioral activities, mental status, death and other abnormal manifestations of the animals. The animals were euthanized at the end of the test.
Tumor volume calculation: V=½×long diameter× short diameter^2 (mm^3). Tumor growth inhibition ratio TGI (%) was used to evaluate the tumor suppressive efficacy of the compounds. TGI (%)=[1-(mean tumor volume at the end of administration of the treatment group−mean tumor volume at the beginning of administration of the treatment group)/(mean tumor volume at the end of administration of the control group−mean tumor volume at the beginning of administration of the control group)]×100%.

A short description of series [2]: Analysis of therapeutic safety window. The note with it: in vivo, oral, 3 days.
Series [3] has as its system MIA-paca-2 cells subcutaneous transplanted tumor. In words: Pharmacodynamic test of CDX model in nude mice. The note with it: 10 mg/kg, QD×15 days. The format is in vivo. The protocol: Animal species and number: Balb/c Nude.
Test groups: blank solvent control group; compound 3-2M (10 mg/kg, QD×15 days), and compound 3-6M (10 mg/kg, QD×15 days).
Animal model establishment: MIA-paca-2 cells were cultured in vitro and inoculated subcutaneously on the right side of the back of nude mice, and the tumor-bearing nude mice were randomly grouped. Subsequently, each group of animals was administered and the day of the first administration was defined as day 1 of the test.
as §1
General state observation: observation time and frequency: once a day; observation index or content: including, but not limited to local administration, appearance and signs, general behavioral activities, mental status, death and other abnormal manifestations of the animals. The animals were euthanized at the end of the test.
Tumor volume calculation: V=½×long diameter×short diameter^2 (mm^3). Tumor growth inhibition ratio TGI (%) was used to evaluate the tumor suppressive efficacy of the compounds. TGI (%)=[1-(mean tumor volume at the end of administration of the treatment group−mean tumor volume at the beginning of administration of the treatment group)/(mean tumor volume at the end of administration of the control group−mean tumor volume at the beginning of administration of the control group)]×100%.

A short description of series [4]: Preliminary safety test of compounds, 3-day oral gavage. The note with it: mouse, in vivo, Balb/c, tentatively suggested, read-out: maximum tolerated dose. The protocol: Samples for testing: compound 3-2M and compound 3-6M.
Animal species and number: Balb/c; 3 animals per group.
Mode of administration: oral gavage.
Animal grouping and administration dose: solvent blank group and compound 3-2M group (400 mg/kg, 800 mg/kg); compound 3-6M group (400 mg/kg, 800 mg/kg).
Administration frequency: once a day, and administration for 3 days.

The subject of the next series is NCI-H358 cells. In words: Cell proliferation inhibitory activity, NCI-H358 (CellTiter-Glo). The format is cell-based. The protocol:
NCI-H358 cells in an exponential growth phase were digested with trypsin-EDTA and plated in a 96-well plate at 2000-3000 cells per well and incubated overnight at 37° C. with 5% CO2. A test compound was prepared as a mother liquor with DMSO, diluted with a RPMI 1640 growth medium in a concentration gradient and added to the 96-well plate and incubated for 72 hours at 37° C. in a 5% CO2 incubator. After incubation, an equal volume of CellTiter-Glo detection reagent was added to each well and incubated after shaking, and a chemiluminescence value was measured by a microplate reader, and the IC50 value for the inhibition of NCI-H358 cell proliferation was fitted and calculated by GraphPad Prism software.
The inhibitory effect of the compounds on the proliferation activity of H358 cells was tested with reference to the method of the biological test 2, and the results were as follows:
The inhibitory effect of the compounds on the proliferation activity of NCI-H358 cells was tested with reference to the method of the biological test 2, and the results were as follows.

In the next series the test system is NCI-H358. In words: Cell proliferation inhibitory activity of NCI-H358, 3D model test (agarose colony formation). The format is cell-based. The protocol:
100 μl of high concentration agarose gel was spread in a 96-well plate as a bottom agarose gel layer; low concentration agarose and growth medium containing cells were mixed and spread on the bottom agarose gel layer, cooled and solidified and incubated overnight at 37° C.; a test compound was prepared into a mother liquor with DMSO, diluted with a RPMI 1640 growth medium in a concentration gradient, and the gradient diluted solution of the compound to be tested with different concentrations was added into 96 wells containing upper agarose gel cells, and solvent control wells were set and placed in a carbon dioxide incubator for culture. During the period, the drug-containing medium was changed to observe the cell growth. After the culture, the cells were stained with NBT, the number of colony formation was counted, and the IC50 value of the compound inhibiting cell proliferation was obtained.

Series [5] concerns Langendorff isolated perfused heart. In words: In vitro isolated heart perfusion test (Langendorff). The arrangement: species or system Guinea pig. The note with it: 3.3 μM. The source says:
Test method: influences of Langendorff isolated perfused heart test compounds on electrocardiogram, wherein the test method used in this test was as follows: [table] Test compounds: compound 3-2M and the compound in Example 41 of patent WO2018217651A1 (i.e., AMG510).

pIC50: −log10 of the molar value.

Take `C=CC(=O)N1CCN(c2nc(=O)n(-c3c(C)ccnc3C(C)C)c3nc(-c4ccccc4C=O)c(Cl)cc23)[C@@H](C)C1` [Compound 3-2M]: in series [1], the “inhibition of subcutaneous transplanted tumor growth of lung cancer NCI-H358 cells in nude mice (in words)” value is listed as “significant inhibitory effects”. Further, in series [1] (NCI-H358 xenograft, QD×15 days, oral gavage), the “Tumor suppression ratio (%)” value is given as “++++ (“++++” represents that the tumor suppression ratio is greater than 140%)”. The “therapeutic safety window: ratio of toxic dose to onset dose” value in series [2] was “greater than 80 times”. Moreover, in series [3], the “inhibition of subcutaneous transplanted tumor growth of pancreatic cancer MIA-paca-2 cells in nude mice (in words)” value is listed as “significant inhibition of subcutaneous transplanted tumor growth”; the “toxicity during administration in CDX test (food and water intake, activities, weight)” value is “showed no toxicity”. Besides, the MTD at 3 days in series [4] was more than 800 mg/kg. In addition, the “cell proliferation inhibitory activity against H358, R-configuration relative to S-configuration compound (fold)” value in the series on NCI-H358 cells (3-2M versus 3-2P) was “more than five times”. The “cell proliferation inhibitory activity, R-configuration compared with corresponding S-configuration compound (in words)” value in the series on NCI-H358 cells (H358) is recorded as “significantly better than that of the corresponding compound 3-2P”. Further, the pIC50 in the series on NCI-H358 cells (biological test 2, NCI-H358 cells, 72 hours, read-out: Cell proliferation inhibitory activity IC50 value of H358) is not below 7.30. In addition, the “cell proliferation inhibitory activity against NCI-H358, 3D model (in words)” value in the series on NCI-H358 is “significant cell proliferation inhibitory activities”. This molecule also gave a pIC50 in the series with NCI-H358 (Homo sapiens, NCI-H358, agarose gel, colony formation, NBT staining) of 8.74. The “effect on the heart rate of the isolated heart (in words)” value in series [5] is “no obvious effect on the heart rate”. For the same molecule, the “HR (heart rate) change %” value in series [5] (Guinea pig isolated heart) is recorded as “A (“A” represents that the heart rate decreases by less than 5%)”.
